Assay results published in article PMC7997579, “Synthetic Lethality in Pancreatic Cancer: Discovery of a New RAD51-BRCA2 Small Molecule Disruptor That Inhibits Homologous Recombination and Synergizes with Olaparib” (Journal of Medicinal Chemistry, 2020).
Read-outs that look alike come from different tables or passages of the source.

Tests used:
[1] = system: homologous recombination in BxPC3 cells; set-up: method as in PMID 30660828; settings: earlier triazole; cited from earlier work
BRC4–RAD51 interaction = target: T1, BRC4–RAD51 interaction (Homo sapiens, UniProt Q06609); test: Competitive biochemical ELISA assay (biotinylated BRC4 peptide vs RAD51); type: binding
T1 construct: purchased Creative Biomart (RAD51); Life Technologies (BRC4 peptide)
T1 sequence (Q06609 1-339): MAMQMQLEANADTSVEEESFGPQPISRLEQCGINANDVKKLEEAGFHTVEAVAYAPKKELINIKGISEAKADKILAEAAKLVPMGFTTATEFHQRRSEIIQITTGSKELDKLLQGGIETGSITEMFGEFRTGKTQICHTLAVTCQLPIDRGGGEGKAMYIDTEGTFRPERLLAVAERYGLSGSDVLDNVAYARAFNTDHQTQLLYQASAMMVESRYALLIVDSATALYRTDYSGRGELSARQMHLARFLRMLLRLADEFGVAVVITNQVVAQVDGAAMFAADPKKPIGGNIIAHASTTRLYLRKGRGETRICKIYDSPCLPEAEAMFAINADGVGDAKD
Experimental: To investigate the mechanism of action of the new dihydroquinolone pyrazoline derivatives, different biological assays were performed. As a primary screening, the ability of compounds 5d–57d to inhibit RAD51-BRCA2 interaction was investigated with a competitive biochemical ELISA assay against the parent compound 4d (Table 1). This assay is effective in evaluating the ability of new molecules to compete with BRC4 to bind to RAD51.[30] […] 18d–21d, 23d, 25d, 30d, and 31d were active at micromolar range, all very similar to the initial hit. […] The replacement of the aromatic ring A in combination with the substitution of the pyrazoline nitrogen with either propionyl or acetyl chain yielded compounds 33d–51d. […] As expected for PPI disruptors, the SARs of the new series of dihydroquinolone pyrazoline were rather complex to rationalize, with many cliffs and spikes that were difficult to understand. […] Accordingly, 4d, 12d, 18d, 20d–23d, 30d, 31d, 33d–36d, 39d, 45d, and 49d were submitted to cell-based study (Table 2).
Competitive ELISA screening assay using biotinylated BRC4 peptide to disrupt the BRC4–RAD51 interaction was performed by modifying the method described by Rajendra et al.[33] BRC4-biotinylated peptide (N-term biotin-[…] from Life Technologies) was used to coat 384-well plates (Nunc). After washing with PBS containing 0.05% Tween-20 (PBST) and blocking with the solution BSA 1% /PBST, overnight hybridization with human RAD51 protein (NP_002866 Creative Biomart, NY) was performed. Test compounds were added in dose response from 0.01 to 100 μM in triplicate with constant DMSO 1%. Antibody raised against RAD51 (Millipore) and HRP-secondary antibody staining to develop the 3,3′,5,5′-tetramethylbenzidine signal (Sigma) quenched with 1 M HCl was used as the assay readout. Colorimetric measure was read on a Victor5 (PerkinElmer) plate reader. BRC4 and Rad51 were included in the assay as positive control. Results were analyzed by using GraphPad software.

[2] = system: homologous recombination in BxPC3 cells; test: Homologous recombination assay (two-plasmid recombination, real-time PCR); type: cell-based, human; settings: BxPC3; one or two doses in the range of the ELISA EC50; NDD = not dose-dependent
Source text: Our working hypothesis is that compounds disrupting RAD51-BRCA2 interaction should affect HR repair and increase the efficacy of PARPi in treating breast, ovarian, and pancreatic cancer. For its clinical relevance, pancreatic adenocarcinoma was selected as our final model for cell-based experiments, and BxPC3 cells were selected for a straightforward comparison with the previously reported triazole derivatives.[30],[31] BxPC3 is derived from a human adenocarcinoma that expresses fully functional BRCA2.[38] As shown in Table 2 and according to the rationale of our hypothesis, our preliminary screening consisted of verifying the efficacy of compounds in inhibiting cell HR and/or in increasing the antiproliferative effect of olaparib. […] HR activity was assessed by evaluating the recombination rate between two transfected plasmids, using a commercially available assay. […] As for the emissucinic acid-containing compounds (4d, 12d, 18d, 20d–23d, 30d, 31d), one of the reasons for their lower potency in cells might be the general poor permeability, likely related to the ionizable acid moiety. […] We then characterized 35d in additional biophysical and cell-based experiments.
Homologous recombination (HR) was assessed by using a commercially available assay (Norgen). This assay is based on cell transfection with two plasmids that, upon cell entry, recombine. The efficiency of HR can be assessed by real-time PCR, using primer mixtures included in the assay kit. Different primer mixtures allow one to discriminate between the original plasmid backbones and their recombination product.
BxPC3 cells (2 × 10^5 per well) were seeded in a 24-well plate and allowed to adhere overnight. Co-transfection with the two plasmids was performed in Lipofectamine 2000 (Invitrogen) according to the manufacturer’s instructions. During transfection (5 h), cells were exposed to different doses of RAD51-BRCA2 disruptors, dissolved in RPMI in the presence of 0.6% DMSO. After washing with PBS, cells were harvested, and DNA was isolated using Illustra Tissue and Cell Genomic Prep Mini Spin kit (GE Healthcare). Sample concentration was measured using an ONDA Nano Genius photometer. The efficiency of HR was assessed by real-time PCR, using 25 ng of template, the primer mixtures included in the assay kit and following the protocol indicated by the manufacturer. Data analysis was based on the ΔΔCt method: [recombination product/backbone plasmids]^treated versus [recombination product/backbone plasmids]^control.

[3] = Solubility (as observed in cell culture media / stated); type: physicochemical; settings: cell culture media
Capan-1 cells = test: Immunofluorescence of nuclear γ-H2AX foci (DNA damage); type: cell-based, human; settings: Capan-1, 48 h, 10 μM olaparib alone
Experimental: To evaluate DNA damage through γH2AX nuclear foci, BXPC3 and Capan1 cells were seeded on glass coverslips in 6-well tissue culture plate (2 × 10^5 cells/well) and allowed to adhere overnight. After 48 h treatment with olaparib (10 μM) or 35d (20 μM) given alone or in combination, cultures growing on coverslips were fixed and treated as described above. For this experiment, the used antibodies were a rabbit polyclonal anti-γH2AX (Abcam, 1:1000 in 5% BSA/PBS) and a secondary anti-rabbit rhodamine-labeled (Novus Biologicals, 1:1000 in 1% BSA/PBS). For both experiments, images were acquired using a Nikon fluorescent microscope equipped with filters for FITC, TRITC, and DAPI. The percentage of cells bearing nuclear foci was estimated by two independent observers, by analyzing 100–250 cells for each treatment sample.

Question: For `O=C(CSc1nnc(Cn2c(=O)sc3ccccc32)n1CCCc1ccccc1)NC1CCCCC1` [Compound 3], which HR inhibition [1] is on record?
Answer: Its HR inhibition is ≤ 40%.

Question: What does the source list for `CCC(=O)N1N=C(c2c(-c3ccccc3)c3cc(Cl)ccc3[nH]c2=O)CC1c1ccc(Br)cc1` (stereo not drawn) [Compound 34d, 3-(5-(4-Bromophenyl)-1-propionyl-4,5-dihydro-1H-pyrazol-3-yl)-6-chloro-4-phenylquinolin-2(1H)-one]?
Answer: EC50 (BRC4–RAD51 interaction; Table 2, compounds selected for cell-based study, read-out: EC50 ELISA): 19 ± 1 µM; EC50 (BRC4–RAD51 interaction; competition with BRC4 for RAD51, triplicate, ± standard deviation, NA = not active, racemic mixtures unless enantiomer named, read-out: EC50 (μM) on ELISA assay): 19 ± 1 µM; HR inhibition (in words) [2]: HR inhibition = not present; solubility in cell culture media [3]: poor solubility

Question: For `O=C(c1cc(Cc2n[nH]c(=O)c3ccccc23)ccc1F)N1CCN(C(=O)C2CC2)CC1` [olaparib], which “γ-H2AX labeling in nuclei” value (Capan-1 cells) is on record?
Answer: The value was “increased nuclear labeling”.
